Data: publication PMC4956231, “Molecular Mechanisms for Drug Hypersensitivity Induced by the Malaria Parasite’s Chloroquine Resistance Transporter” (PLoS Pathogens, 2016)
Marks after values point to notes of the source that are not given here.

Legend:
PfCRT^Dd2 [1] = assay: [3H]drug transport into Xenopus oocytes expressing PfCRT; assay type: cell-based, Plasmodium falciparum; conditions: PfCRT^Dd2-expressing oocytes; [3H]CQ […], pH 5.5, 15 μM unlabeled CQ (S5 Fig)
Experimental: (§1) For each treatment, 10 oocytes were transferred to a 5 mL polystyrene round bottom tube (Falcon) and washed twice with 3.5 mL of ND96 buffer, with the residual buffer removed by pipette. […] The assay was terminated by removing the reaction buffer with a pipette and washing the oocytes twice with 3.5 mL of ice-cold ND96 buffer. Each oocyte was transferred to a separate well of a white 96-well plate (NUNC or PerkinElmer), incubated overnight at room temperature in 30 μL of 10% SDS, and mixed on an orbital shaker the following day for approximately 5 min. The lysed oocyte was then combined with 150 μL of MicroScint-40 microscintillant (PerkinElmer), the plate covered with a TopSeal-A (PerkinElmer), and the radioactivity measured with a PerkinElmer MicroBeta^2 microplate liquid scintillation analyzer.

76N-PfCRT^K1 = assay: as above; assay type: cell-based, Plasmodium falciparum; conditions: transport via 76N-PfCRT^K1 in oocytes, CQ pH 6.0, quinine and quinidine pH 5.0
Experimental: as §1
Note that noninjected oocytes and oocytes expressing PfCRT^3D7 take up [^3H]CQ to similar (low) levels via simple diffusion of the neutral species of the drug; this represents the ‘background’ level of [^3H]CQ accumulation in oocytes (refer to Martin et al. for full data and discussion).

[2] = test system: P. falciparum isolate HON; conditions: HON (PfCRT^3D7); IC50 in line divided by IC50 in drug-sensitive reference strain; cited from earlier work
P. falciparum Dd2 = conditions: Dd2 (PfCRT^Dd2); IC50 in line divided by IC50 in drug-sensitive reference strain; cited from earlier work
[3] = test system: P. falciparum line 106/1^76T; conditions: 106/1^76T (PfCRT^K1); IC50 in line divided by IC50 in drug-sensitive reference strain; cited from earlier work
[4] = test system: P. falciparum line 106/1^76N; conditions: 106/1^76N (76N-PfCRT^K1); IC50 in line divided by IC50 in drug-sensitive reference strain; cited from earlier work
[5] = test system: P. falciparum line 106/1^76I; conditions: 106/1^76I (76I-PfCRT^K1); IC50 in line divided by IC50 in drug-sensitive reference strain; cited from earlier work
[6] = test system: P. falciparum line 106/1^72R,76I; conditions: 106/1^72R,76I (72R,76I-PfCRT^K1); IC50 in line divided by IC50 in drug-sensitive reference strain; cited from earlier work
[7] = test system: P. falciparum line 106/1^76I,352K; conditions: 106/1^76I,352K (76I,352K-PfCRT^K1); IC50 in line divided by IC50 in drug-sensitive reference strain; cited from earlier work
[8] = test system: P. falciparum line 106/1^76I,369F; conditions: 106/1^76I,369F (76I,369F-PfCRT^K1); IC50 in line divided by IC50 in drug-sensitive reference strain; cited from earlier work
PfCRT^K1 [9] = conditions: oocytes; cited from earlier work
163R,356V-PfCRT^K1 = assay: [3H]drug transport into Xenopus oocytes expressing PfCRT; assay type: cell-based, Plasmodium falciparum; conditions: oocytes expressing 163R,356V-PfCRT^K1; pH 5.0, 50 μM unlabeled amantadine
Experimental: as §1

76K-PfCRT^K1 [10] = assay: as above; assay type: cell-based, Plasmodium falciparum; conditions: oocytes expressing 76K-PfCRT^K1; pH 5.0, 50 μM unlabeled amantadine
Experimental: as §1

76K-PfCRT^K1 [11] = assay: Trans-stimulation of [3H]CQ uptake by microinjected compound in oocytes; assay type: cell-based, Plasmodium falciparum; conditions: oocytes expressing 76K-PfCRT^K1, microinjected amantadine
Experimental: (§2) A subset of experiments measured the ability of unlabeled amantadine to trans-stimulate the uptake of [^3H]CQ into the oocyte. Immediately prior to the commencement of the experiment, the oocytes (days 3–4 post-injection of the cRNA) were microinjected with either amantadine (estimated intracellular concentrations of 1, 2.5, 5, 10, 15, or 20 mM) or a control treatment (buffer, spermine, or histidine; the estimated intracellular concentrations of spermine and histidine were 5 and 10 mM). The volume injected was 50 nL and the intracellular concentrations were calculated using previous estimates of the volume of stage V-VI oocytes (~400 nL [77]). The resealed oocytes were then incubated at 16–18°C in OR^2+ buffer for approximately 5 min and the influx of [^3H]CQ was measured as described above. […] The Michaelis-Menten equation was then fitted to the data to derive the kinetic parameters for the trans-stimulation of [^3H]CQ transport by amantadine.

PfCRT^3D7 = assay: as above; assay type: cell-based, Plasmodium falciparum; conditions: oocytes expressing PfCRT^3D7, microinjected amantadine
Experimental: as §2

PfCRT^Dd2 [12] = assay: as above; assay type: cell-based, Plasmodium falciparum; conditions: oocytes expressing PfCRT^Dd2 microinjected with unlabeled amantadine
Experimental: as §2

PfCRT^K1 [13] = assay: as above; assay type: cell-based, Plasmodium falciparum
Experimental: as §2

76I,369F-PfCRT^K1 = 76I,369F-PfCRT^K1 (Plasmodium falciparum, UniProt Q9N623, A220S/K76I/M74I/N326S/N75E/Q271E/R371I/V369F); assay: as above; assay type: cell-based
Sequence of 76I,369F-PfCRT^K1 (Q9N623 whole entry A220S/K76I/M74I/N326S/N75E/Q271E/R371I/V369F): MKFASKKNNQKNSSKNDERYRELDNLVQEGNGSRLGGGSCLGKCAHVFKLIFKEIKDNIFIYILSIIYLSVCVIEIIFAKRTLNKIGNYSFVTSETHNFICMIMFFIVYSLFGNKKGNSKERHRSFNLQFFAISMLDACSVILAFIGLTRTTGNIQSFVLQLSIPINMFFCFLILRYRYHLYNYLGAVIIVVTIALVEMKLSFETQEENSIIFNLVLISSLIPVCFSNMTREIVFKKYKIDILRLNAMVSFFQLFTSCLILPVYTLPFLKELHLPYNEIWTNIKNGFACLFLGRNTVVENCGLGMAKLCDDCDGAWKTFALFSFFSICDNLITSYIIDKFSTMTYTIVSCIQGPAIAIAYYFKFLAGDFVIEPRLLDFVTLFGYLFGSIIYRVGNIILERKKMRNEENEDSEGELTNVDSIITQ
Experimental: as §2

76I-PfCRT^K1 = 76I-PfCRT^K1 (Plasmodium falciparum, UniProt Q9N623, A220S/K76I/M74I/N326S/N75E/Q271E/R371I); assay: as above; assay type: cell-based
Sequence of 76I-PfCRT^K1 (Q9N623 whole entry A220S/K76I/M74I/N326S/N75E/Q271E/R371I): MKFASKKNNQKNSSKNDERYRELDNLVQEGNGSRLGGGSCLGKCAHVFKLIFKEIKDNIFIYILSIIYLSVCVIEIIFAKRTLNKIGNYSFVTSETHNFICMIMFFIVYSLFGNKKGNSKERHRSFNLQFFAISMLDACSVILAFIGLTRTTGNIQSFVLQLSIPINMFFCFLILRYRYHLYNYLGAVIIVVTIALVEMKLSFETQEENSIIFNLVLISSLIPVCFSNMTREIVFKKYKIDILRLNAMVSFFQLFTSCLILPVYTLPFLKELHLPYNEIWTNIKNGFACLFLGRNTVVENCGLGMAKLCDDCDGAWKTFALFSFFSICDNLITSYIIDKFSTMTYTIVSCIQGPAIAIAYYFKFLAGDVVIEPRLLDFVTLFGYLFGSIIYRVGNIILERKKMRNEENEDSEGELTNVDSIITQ
Experimental: as §2

PfNT1 = PfNT1 (Plasmodium falciparum, UniProt Q8IDM6); assay: as above; assay type: cell-based; conditions: oocytes expressing PfNT1, microinjected amantadine
Sequence of PfNT1 (Q8IDM6 whole entry): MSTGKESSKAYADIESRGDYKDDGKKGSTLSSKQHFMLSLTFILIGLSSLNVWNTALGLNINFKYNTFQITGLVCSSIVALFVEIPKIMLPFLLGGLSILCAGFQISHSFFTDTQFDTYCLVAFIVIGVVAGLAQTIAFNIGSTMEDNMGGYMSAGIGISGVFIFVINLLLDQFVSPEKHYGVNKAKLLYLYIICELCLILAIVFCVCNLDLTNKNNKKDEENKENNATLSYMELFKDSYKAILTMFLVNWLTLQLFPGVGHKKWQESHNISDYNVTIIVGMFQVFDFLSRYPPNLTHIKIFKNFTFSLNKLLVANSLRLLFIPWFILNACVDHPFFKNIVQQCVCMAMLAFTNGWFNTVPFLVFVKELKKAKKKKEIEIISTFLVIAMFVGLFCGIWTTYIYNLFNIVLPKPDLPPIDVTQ
Experimental: as §2

noninjected oocytes = assay: as above; assay type: cell-based, Xenopus laevis; conditions: microinjected amantadine
Experimental: as §2

Structure (SMILES): CCN(CC)CCCC(C)Nc1ccnc2cc(Cl)ccc12 (stereo not shown) [CQ, chloroquine]
- rate of CQ uptake (PfCRT^Dd2 [1]): 24 ± 1.3 pmol per oocyte/h
- Apparent Vmax (76N-PfCRT^K1): 48.0 ± 4.5^c,f (7) pmol per oocyte/h
- Km (76N-PfCRT^K1; read-out: Apparent Km): 303 ± 5 µM
- Drug susceptibility (In vitro resistance index) [2]: 1
- Drug susceptibility (In vitro resistance index) (P. falciparum Dd2): 11.78 ± 0.18
- Drug susceptibility (In vitro resistance index) [3]: 12.95 ± 0.95
- Drug susceptibility (In vitro resistance index) [4]: 8.60 ± 0.90
- Drug susceptibility (In vitro resistance index) [5]: 15.66 ± 2.20
- Drug susceptibility (In vitro resistance index) [6]: 1.13 ± 0.07
- Drug susceptibility (In vitro resistance index) [7]: 0.91 ± 0.09
- Drug susceptibility (In vitro resistance index) [8]: 3.53
- CQ transport activity of PfCRT^K1, higher than that of PfCRT^Dd2 (PfCRT^K1 [9]): ~ 20%

Structure (SMILES): NC12CC3CC(CC(C3)C1)C2 [amantadine]
- [3H]amantadine accumulation relative to background (163R,356V-PfCRT^K1): failed to take up
- [3H]amantadine accumulation relative to background (76K-PfCRT^K1 [10]): failed to take up
- effect on accumulation of [3H]CQ (trans-stimulation) (76K-PfCRT^K1 [11]): did not affect
- effect on accumulation of [3H]CQ (trans-stimulation) (PfCRT^3D7): did not affect
- increase in the rate of CQ influx (trans-stimulation) (PfCRT^Dd2 [12]): 6.7 ± 0.3 pmol per oocyte/h
- Hill coefficient (trans-stimulation of [3H]CQ uptake) (PfCRT^K1 [13]; PfCRT^K1): 1.63 ± 0.12
- increase in the rate of CQ influx (trans-stimulation) (PfCRT^K1 [13]; oocytes expressing PfCRT^K1 microinjected with unlabeled amantadine): 6.4 ± 0.2 pmol per oocyte/h
- Hill coefficient (trans-stimulation of [3H]CQ uptake) (76I,369F-PfCRT^K1; 76I,369F-PfCRT^K1): 1.46 ± 0.05
- increase in the rate of CQ influx (trans-stimulation) (76I,369F-PfCRT^K1; oocytes expressing 76I,369F-PfCRT^K1 microinjected with unlabeled amantadine): 0.43 ± 0.02 pmol per oocyte/h
- Hill coefficient (trans-stimulation of [3H]CQ uptake) (76I-PfCRT^K1; 76I-PfCRT^K1): 1.49 ± 0.07
- increase in the rate of CQ influx (trans-stimulation) (76I-PfCRT^K1; oocytes expressing 76I-PfCRT^K1 microinjected with unlabeled amantadine): 0.68 ± 0.04 pmol per oocyte/h
- effect on accumulation of [3H]CQ (trans-stimulation) (PfNT1): did not affect
- effect on accumulation of [3H]CQ (trans-stimulation) (noninjected oocytes): did not affect
